Measured values reported in US10577349B2 (Sanford Burnham Prebys Medical Discovery Institute, priority 2015, dated 2020).

Legend:
[1] = biological target: EmCV Cap-dependent translation; experiment: In vitro translation assay, FF-EmCV-Ren construct, cap-dependent (FF luciferase); assay type: biochemical, rabbit reticulocyte lysates
Description: (§1) The bicistronic dual-reporter constructs that contain the firefly luciferase (FF) sequence, followed by the (encephalomyocarditis virus) EmCV and Hepatitis C virus (HCV) IRES, respectively, and the Renilla reniformis (Ren) luciferase sequence, has been previously described (Bordeleau Me., et al. Functional characterization of IRESes by an inhibitor of the RNA helicase eIF4A. Nature chemical biology. 2006; 2:213-20). For measurement of translation from the FF-EmCV-Ren and FF-HCV-Ren constructs, rabbit reticulocyte lysates (RRL) (Life Technologies, Carlsbad, Calif., USA) and the Dual-Glo (Promega, Madison, Wis., USA) read-outs were chosen. Two μl rabbit reticulocyte lysates mixed with Translation Mix 20× (-Met) and Translation Mix 20× (-Leu) in a ratio of 1:1 were pre-incubated with test compounds in 1536-well plates for 1 h at room temperature. Then, translation was started by adding 0.1 μg RNA per well and incubated for 2 h at 30° C. After a short chill phase, 2.5 μl Dual-Glo reagent 1 was added to each well and incubated for 10 min before reading the FF luciferase activity with the ViewLux uHTS Microplate Imager (Perkin Elmer, Waltham, Mass., USA). Directly after, 2.5 μl Dual-Glo reagent 2 was dispensed to each well and incubated at room temperature for 10 min before reading the Ren luciferase activity on the ViewLux. To exclude the possibility that test compounds interfere with any of the luciferase activities, a counter assay was performed in which the compounds were added after the completion of the in vitro translation.

[2] = biological target: HCV cap-independent translation; experiment: In vitro translation assay, FF-HCV-Ren construct, cap-independent (Ren luciferase); assay type: biochemical, rabbit reticulocyte lysates
Description: as §1

[3] = biological target: EmCV Cap-independent translation; experiment: In vitro translation assay, FF-EmCV-Ren construct, cap-independent (Ren luciferase); assay type: biochemical, rabbit reticulocyte lysates
Description: as §1

[4] = biological target: HCV cap-dependent translation; experiment: In vitro translation assay, FF-HCV-Ren construct, cap-dependent (FF luciferase); assay type: biochemical, rabbit reticulocyte lysates
Description: as §1

[5] = system: A375; experiment: 48 h Cytotoxicity A375; assay type: cell-based; details: Homo sapiens, A-375

SMILES	IC50 [1] [µM]	IC50 [2] [µM]	IC50 [3] [µM]	IC50 [4] [µM]	IC50 [5] [µM]
Cc1ccc(-c2c(C(=O)/C=C/c3nc4ccccc4[nH]3)c(=O)[nH]c3ccc(Cl)cc23)cc1 [Compound 4, 3-(3-1H-Benzoimidazol-2-yl-acryloyl)-6-chloro-4-p-tolyl-1H-quinolin-2-one]	2 to 10	2 to 10	2 to 10	2 to 10	2 to 10
Cc1ccnc(-c2c(C(=O)/C=C/c3ccccn3)c(=O)[nH]c3ccc(Cl)cc23)c1 [Compound 94, 3-((2E)-3-(2-pyridyl)prop-2-enoyl)-6-chloro-4-(4-methyl(2-pyridyl))hydroquinolin-2-one]	> 20	> 20	> 20	> 20	2 to 10
O=C(/C=C/c1ccccn1)c1c(-c2ccc(OC(F)(F)F)cc2)c2cc(Cl)ccc2[nH]c1=O [Compound 88, 3-((2E)-3-(2-pyridyl)prop-2-enoyl)-6-chloro-4-[4-(trifluoromethoxy)phenyl]hydroquinolin-2-one]	2 to 10	2 to 10	2 to 10	2 to 10	2 to 10
Cn1ccc2cc(/C=C/C(=O)c3c(-c4ccccc4)c4cc(Cl)ccc4[nH]c3=O)ccc21 [Compound 30, 6-Chloro-3-[3-(1-methyl-1H-indol-5-yl)-acryloyl]-4-phenyl-1H-quinolin-2-one]	> 20	> 20	> 20	> 20	2 to 10
Cc1cncc(-c2c(C(=O)/C=C/c3ccccn3)c(=O)[nH]c3ccc(Cl)cc23)c1 [Compound 96, 3-((2E)-3-(2-pyridyl)prop-2-enoyl)-6-chloro-4-(5-methyl(3-pyridyl))hydroquinolin-2-one]	10 to 20	10 to 20	2 to 10	> 20	2 to 10
O=C(CCc1cncc(F)c1)c1c(-c2ccccc2)c2cc(Cl)ccc2[nH]c1=O [Compound 67, 6-Chloro-3-[3-(5-fluoro(3-pyridyl))propanoyl]-4-phenylhydroquinolin-2-one]	> 20	> 20	> 20	> 20	> 20
N#Cc1ccc(-c2c(C(=O)/C=C/c3ccccn3)c(=O)[nH]c3ccc(Cl)cc23)cc1 [Compound 90, 4-[3-((2E)-3-(2-pyridyl)prop-2-enoyl)-6-chloro-2-oxo-4-hydroquinolyl]benzenecarbonitrile]	2 to 10	2 to 10	2 to 10	10 to 20	< 2
O=C(/C=C/c1cc(Cl)ccn1)c1c(-c2ccccc2)c2cc(Cl)ccc2[nH]c1=O [Compound 71, 3-[(2E)-3-(4-chloro(2-pyridyl))prop-2-enoyl]-6-chloro-4-phenylhydroquinolin-2-one]	> 20	> 20	> 20	10 to 20	2 to 10
O=C(/C=C/c1nc2ccccc2[nH]1)c1c(C2CCCCC2)c2cc(Cl)ccc2[nH]c1=O [Compound 11, (E)-3-(3-(1H-benzo[d]imidazol-2-yl)acryloyl)-6-chloro-4-cyclohexylquinolin-2(1H)-one]	2 to 10	2 to 10	2 to 10	2 to 10	< 2
O=C(/C=C/c1nc2ccccc2[nH]1)c1c(-c2ccccc2)c2cc([N+](=O)[O-])ccc2[nH]c1=O [Compound 13, 3-(3-1H-Benzoimidazol-2-yl-acryloyl)-6-nitro-4-phenyl-1H-quinolin-2-one]	2 to 10	2 to 10	2 to 10	10 to 20	2 to 10
O=C(/C=C/c1ccc(F)cc1F)c1c(-c2ccccc2)c2cc(Cl)ccc2[nH]c1=O [Compound 41, 6-Chloro-3-[3-(2,4-difluoro-phenyl)-acryloyl]-4-phenyl-1H-quinolin-2-one]	2 to 10	2 to 10	2 to 10	2 to 10	< 2
O=C(/C=C/c1nc2ccccc2[nH]1)c1c(-c2ccccc2)c2ccncc2[nH]c1=O [Compound 22, 3-(3-1H-Benzoimidazol-2-yl-acryloyl)-4-phenyl-1H-[1,7]naphthyridin-2-one]	10 to 20	10 to 20	10 to 20	10 to 20	> 20
O=C(/C=C/c1ccc(F)c(F)c1)c1c(-c2ccccc2)c2cc(Cl)ccc2[nH]c1=O [Compound 40, 6-Chloro-3-[3-(3,4-difluoro-phenyl)-acryloyl]-4-phenyl-1H-quinolin-2-one]	2 to 10	2 to 10	2 to 10	2 to 10	< 2
O=C(/C=C/c1nc2cc(Cl)c(Cl)cc2[nH]1)c1c(-c2ccccc2)c2cc(Cl)ccc2[nH]c1=O [Compound 63, 6-Chloro-3-[3-(5,6-dichloro-1H-benzoimidazol-2-yl)-acryloyl]-4-phenyl-1H-quinolin-2-one]	2 to 10	2 to 10	2 to 10	2 to 10	2 to 10
O=C(/C=C/c1ccsc1)c1c(-c2ccccc2)c2cc(Cl)ccc2[nH]c1=O [Compound 27, 6-Chloro-4-phenyl-3-(3-thiophen-3-yl-acryloyl)-1H-quinolin-2-one]	2 to 10	2 to 10	2 to 10	2 to 10	2 to 10
O=C(/C=C/c1cncc(Cl)c1)c1c(-c2ccccc2)c2cc(Cl)ccc2[nH]c1=O [Compound 115, (E)-6-chloro-3-(3-(5-chloropyridin-3-yl)acryloyl)-4-phenylquinolin-2(1H)-one]	2 to 10	2 to 10	2 to 10	2 to 10	< 2
O=C(/C=C/c1cncc(F)c1)c1c(-c2cncc(Br)c2)c2cc(Cl)ccc2[nH]c1=O [Compound 103, (E)-4-(5-Bromo-pyridin-3-yl)-6-chloro-3-[3-(5-fluoro-pyridin-3-yl)-acryloyl]-1H-quinolin-2-one]	2 to 10	2 to 10	2 to 10	10 to 20	2 to 10
Cn1c(/C=C/C(=O)c2c(-c3ccccc3)c3cc(Cl)ccc3n(C)c2=O)nc2ccccc21 [Compound 59, 6-Chloro-1-methyl-3-[3-(1-methyl-1H-benzoimidazol-2-yl)-acryloyl]-4-phenyl-1H-quinolin-2-one]	2 to 10	2 to 10	2 to 10	2 to 10	2 to 10
O=C(/C=C/c1nc2ccccc2[nH]1)c1c(-c2ccccc2)c2cnccc2[nH]c1=O [Compound 24, 3-(3-1H-Benzoimidazol-2-yl-acryloyl)-4-phenyl-1H-[1,6]naphthyridin-2-one]	2 to 10	10 to 20	2 to 10	10 to 20	< 2
COc1ccc(-c2c(C(=O)/C=C/c3ccccn3)c(=O)[nH]c3ccc(Cl)cc23)cc1 [Compound 80, 3-((2E)-3-(2-pyridyl)prop-2-enoyl)-6-chloro-4-(4-methoxyphenyl)hydroquinolin-2-one]	2 to 10	2 to 10	2 to 10	10 to 20	2 to 10
Cc1ccc(/C=C/C(=O)c2c(-c3ccccc3)c3cc(Cl)ccc3[nH]c2=O)cc1 [Compound 34, 6-Chloro-4-phenyl-3-(3-p-tolyl-acryloyl)-1H-quinolin-2-one]	10 to 20	2 to 10	2 to 10	2 to 10	2 to 10
O=C(/C=C/c1cncc(C(F)(F)F)c1)c1c(-c2ccccc2)c2cc(Cl)ccc2[nH]c1=O [Compound 76, 3-{(2E)-3-[5-(trifluoromethyl)(3-pyridyl)]prop-2-enoyl}-6-chloro-4-phenylhydroquinolin-2-one]	2 to 10	2 to 10	2 to 10	2 to 10	< 2
O=C(/C=C/c1cncc(F)c1)c1c(-c2cncc(Cl)c2)c2cc(Cl)ccc2[nH]c1=O [Compound 101, 3-[(2E)-3-(5-fluoro(3-pyridyl))prop-2-enoyl]-6-chloro-4-(5-chloro(3-pyridyl))hydroquinolin-2-one]	2 to 10	10 to 20	10 to 20	10 to 20	2 to 10
O=C(/C=C/c1cncc(F)c1)c1c(-c2ccc(OC(F)(F)F)cc2)c2cc(Cl)ccc2[nH]c1=O [Compound 87, 3-[(2E)-3-(5-fluoro(3-pyridyl))prop-2-enoyl]-6-chloro-4-[4-(trifluoromethoxy)phenyl]hydroquinolin-2-one]	2 to 10	2 to 10	2 to 10	2 to 10	2 to 10
Cc1cncc(/C=C/C(=O)c2c(-c3ccccc3)c3cc(Cl)ccc3[nH]c2=O)c1 [Compound 74, 3-[(2E)-3-(5-methyl(3-pyridyl))prop-2-enoyl]-6-chloro-4-phenylhydroquinolin-2-one]	2 to 10	2 to 10	2 to 10	2 to 10	< 2
